# Experiment: gradient 5% acetonitrile 3 min, to 50% in 2 min, to 85% in 15 min, held 3 min, 100 µL/min
# Conditions: column: Zorbax Extend-C18 2.1 x 50 mm; eluents: water / acetonitrile, 0.1% formic acid
# Procedure, shortened: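 Pure standards were analyzed in mixtures of ~100 molecules using HPLC coupled to a quadrupole time-of-flight mass spectrometer, in both positive and negative ionization mode. Separation used a Zorbax Extend-C18 column (2.1 × 50 mm, 1.8 μm) at 100 μL/min, with water and acetonitrile each containing 0.1% formic acid. Dead and dwell volumes were 40 μL and 900 μL, and data were collected over 3 months. Retention time was read from computationally picked adduct peaks, each inspected manually.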
row,SMILES,RP-LC retention time [s]
1,COc1ccc(C)cc1NC(=O)C1CCN(c2cc(N3CCSCC3)ncn2)CC1,717
2,Cc1cc2nn(CC(=O)Nc3ccc(Br)cc3F)c(=O)n2c(-c2ccc(F)cc2)n1,952
3,Cn1cc(C2=CCN(C(=O)Nc3ccc(F)cc3F)CC2)c2cccnc21,792
4,COc1ccc(OC)c(CNC(=O)c2cc3c(=O)n(C)ccc3n2C)c1,692
5,Cc1nnc2n1CCC(NC(=O)c1ccoc1)CC2 (configuration not stated),532
6,CS(=O)(=O)N1CCC(C(=O)NCC2(CO)CC2)CC1,536
7,O=C(NCc1ccccn1)C1CCN(c2cc(N3CCSCC3)ncn2)CC1,559
8,CCn1c(C(=O)N2CCN(c3ncccn3)CC2)cc2cc(S(=O)(=O)N(C)C)ccc21,830
9,Cc1ccc(-c2ncc3c(=O)n(CC(=O)NC(C)C)c(=O)n(C)c3n2)cc1,854
10,CCSc1nnc(NC(=O)CSc2nn3c(=O)c(C)nnc3s2)s1,640
11,Cc1onc(-c2ccccc2Cl)c1C(=O)Nc1cc(C(=O)N2CCCC2)cn(C)c1=O,699
12,C[C@H](Cc1ccc(O)c(O)c1)[C@@H](C)Cc1ccc(O)c(O)c1,878
13,O=C(CCC1CCCN(S(=O)(=O)c2cccc(F)c2)C1)NCC1CC1 (configuration not stated),822
14,COC(=O)CNC(=O)Nc1cc(F)c2nc(N3CCOCC3)ccc2c1,620
15,O=c1n(Cc2cc(F)cc(F)c2)nc2ccc(S(=O)(=O)N3CCOCC3)cn12,816
16,Cc1noc(C)c1Cc1c(C(=O)NCCn2c(C)cnc2C2CC2)noc1C,623
17,CCn1cc(C(=O)Nc2ccc(C)c(C)c2)c(S(=O)(=O)N2CCSCC2)n1,1050
18,Cc1cc(C)nc(NS(=O)(=O)c2ccc(Nc3nc(-c4ccc(C)c(C)c4)cs3)cc2)n1,1020
19,COC(=O)Nc1csc2c1NC(=O)CCCC2,716
20,O=C(Nc1ccc2c(c1)N(C(=O)C1CCCO1)CC2)c1ccc(F)c(F)c1 (configuration not stated),771

row,SMILES,RP-LC retention time [s]
1,COc1ccc(NC(=O)Cn2cnc(-c3nc(C)cs3)c2)cc1Cl,699
2,CCC(C)C(=O)NCCc1c[nH]c2cc(OC)ccc12 (configuration not stated),728
3,COc1ccc(Cc2nc(-c3cccc(-c4ccnn4C)c3)no2)cc1OC,904
4,O=c1n(Cc2ccccc2F)nc2ccc(S(=O)(=O)N3CCOCC3)cn12,788
5,Cc1ccc(-c2csc(Cc3nc(-c4ccc(F)cc4)no3)n2)cc1,1310
6,Cc1c2ccncc2c(C)c2c1sc1ccccc12,714
7,COc1ccc(CC(=O)Nc2ccc3c(c2)Sc2ncccc2C(=O)N3C)cc1Cl,807
8,O=C(NCc1csc(-c2cccs2)n1)C1CCN(C(=O)c2ccc(F)c(F)c2)CC1,770
9,CCOCC(=O)Nc1ccc2c(c1)Sc1ncccc1C(=O)N2C(C)C,764
10,Cc1cccc(N2CCN(S(=O)(=O)c3cc4n(c3)CCCN(C(C)C)C4=O)CC2)c1,921
11,CC(=O)Nc1ccc(-n2cnc(C(=O)N3CCN(c4cc(C)ccc4C)CC3)c2)nc1,790
12,O=C(NCC1CCCO1)c1cc(S(=O)(=O)N2CCCCCC2)ccc1Cl (configuration not stated),842
13,COCC1(O)CCOC2(CCN(C(=O)C3CCCCC3)CC2)C1 (configuration not stated),656
14,CCn1c(=O)oc2cc(-c3noc(-c4ccc(C)c(F)c4)n3)ccc21,1200
15,CN(C)C(=O)c1cc2cnc(Nc3ccc(N4CCNCC4)cn3)nc2n1C1CCCC1,630
16,COc1ccc(CN2CCc3nc(N4CCOCC4)ncc3C2)c(OC)c1,611
17,Cc1cc(C)n(CCNC(=O)c2ccsc2)n1,593
18,O/N=C(\CC(O)(C(F)(F)F)C(F)(F)F)c1cccc(Cl)c1,944
19,CCC(=O)N1CCCC1COc1ccc(C(=O)N2CCCC2)cc1 (configuration not stated),712
20,Cc1ccc(-c2nnc(-c3cccc(S(=O)(=O)NC(C(=O)O)C(C)C)c3)o2)cc1 (configuration not stated),874

# Continued, values first:
row,RP-LC retention time [s],SMILES
1,698,CS(=O)(=O)c1ccc(-c2ccc(NC(=O)c3cccs3)cc2)nn1
2,771,COc1ccc(N2CCN(c3nccc4ccc(C(=O)NC5CCCCC5)cc34)CC2)cc1
3,752,O=C(NCCC1=CCCCC1)C1CCCN(c2ccnc(-c3ccc(F)cc3)n2)C1 (configuration not stated)
4,710,CN1CCCN(C(=O)c2cn3ccnc(-c4ccccc4)c3n2)CC1
5,1170,COc1ccc(-c2ncc3c(n2)CCN(C(=O)Nc2cccc(Cl)c2C)C3)cc1
6,992,Cc1c(Cl)cccc1Nc1c(-c2ccc(Cl)cc2)nc2ncccn12
7,1010,CCc1nn2c(CNS(=O)(=O)Cc3cc(F)cc(F)c3)c(-c3ccccc3)nc2s1
8,961,CC1(C(=O)NCc2ccccc2)CCN(S(=O)(=O)c2ccc(Br)cc2)CC1
9,680,COc1cccc(NC(=O)CN2CCC(c3nc(-c4cccs4)no3)CC2)c1
10,938,Cn1nc(-c2nnc(-c3ccccc3)o2)c2c1CCN(S(=O)(=O)c1ccccc1Cl)C2
11,787,COCCN(CC(=O)N1CCc2sccc2C1COc1ccccc1)C(=O)COC (configuration not stated)
12,619,COc1ccc(C(=O)NCCc2sc(-c3cccnc3)nc2C)cc1
13,1080,Cn1cccc1CN(C(=O)CC(c1ccccc1)c1ccccc1)C1CC1
14,705,O=C(Cc1ccccc1Cl)Nc1nnc(C2CC(=O)N(c3ccc(F)cc3)C2)o1 (configuration not stated)
15,814,O=C(NCCc1ccccc1)c1ccc2c(c1)CCN2C(=O)C1CC1
16,751,O=C(NCc1cccc2ccccc12)NCc1nnnn1-c1ccccc1
17,1200,CCc1ccc(N2CC(c3noc(-c4cccc(Cl)c4)n3)CC2=O)cc1 (configuration not stated)
18,1070,Cc1ccc(-c2csc(NC(=O)c3coc4ccccc4c3=O)n2)o1
19,880,COc1ccc(N2CC(c3noc(-c4ccccc4Cl)n3)CC2=O)cc1OC (configuration not stated)
20,587,CN(Cc1cccnc1)C(=O)c1c(OCC2CC2)cc(=O)n2c1CCCCC2
21,597,O=C(Cn1c(=O)oc2ccccc21)N1CCC2(CC1)NCCc1c2[nH]c2ccccc12
22,993,O=C(c1cccc2[nH]ccc12)N1CCCC1c1nc(-c2cccc(Cl)c2)no1 (configuration not stated)
23,778,Cc1ccc(NC(=O)c2nc3ccccc3[nH]c2=O)c(C)c1
24,646,Cc1ccc(-c2ncccc2CNC(=O)c2ccc3c(c2)OCO3)cc1
25,973,Cc1ccc(S(=O)(=O)N2C[C@@H](F)C[C@H]2C(=O)N2CCc3ccccc3C2)cc1C
26,892,CCOc1ccc(C(=O)N2CCCC(c3nnc(-c4ccccc4)o3)C2)cc1 (configuration not stated)
27,825,NC(=O)c1oc2ccccc2c1NC(=O)C1CCCCN1S(=O)(=O)c1cccs1 (configuration not stated)

# Reference: the METLIN SMRT retention time set (Domingo-Almenara et al. 2019)
